Test results taken from US12109218B2, “Compositions of grapiprant and methods for using the same” (ARATANA THERAPEUTICS, INC., priority 2014, dated 2024).

Legend:
[1] = Pharmacokinetics of capsule, suspension and tablets in dogs (Example 3); format: in vivo, dog; details: male dogs; for AUC(0-t) / AUC(0-inf) / Cmax / Tmax / half-life: dog, mean; for AUC(0-t): in vivo; for AUC(0-inf) / Cmax / Tmax / half-life: serum; for AUC0-∞/Dose / Cmax/Dose: dose-normalized mean
Description: The objective of this study was to compare the pharmacokinetic profile of several tablet formulations of grapiprant to capsule and aqueous methylcellulose suspension formulations of grapiprant with 20-mg doses. Appropriate amounts of the test article/excipient mixture were placed into gelatin capsules to provide each animal with 20 mg of grapiprant. As the grapiprant content in the excipient blend was 45% of the mixture weight, the total weight of the blend in each capsule was 0.0440 g. The weight tolerance was within ±0.005 g of the nominal capsule content weight.
For the aqueous suspensions (Group 2), the vehicle was 0.5% methyl cellulose (400 centipoise) in water. A 0.3-mg/mL suspension of grapiprant was prepared by adding grapiprant to a calibrated beaker and adding about 60-90% of the 0.5% aqueous methylcellulose to the beaker. A homogenizer was used to blend the material. A stir bar was added to the beaker, and the suspension was stirred for about 5 minutes. The stir bar was removed temporarily to adjust the volume with additional vehicle, and then the suspension was stirred for another 5 minutes before being transferred to a labeled dosing container. The formulation was continuously stirred at the time of dose administration.
Statistical analyses were conducted to determine differences in Cmax, Tmax, and AUCmax Values were normalized by mg/kg, and group means and standard deviations were calculated for numeric data. The actual administered doses ranged from 1.81 to 2.82 mg/kg, and averaged 2.2 mg/kg. No animal was found dead or deemed moribund during the study. All animals were normal at the scheduled observation time of 2 hours postdose.

[2] = tested on: dogs with naturally occurring osteoarthritis; test: Dose ranging field study in osteoarthritic dogs, CBPI (Example 6); format: in vivo, dog; details: for median decrease from baseline PSS score: placebo 28; for median decrease from baseline PIS score: placebo 39.13; for Pain Interference Score (PIS), % change from Day 0 / Pain Severity Score (PSS), % change from Day 0: Formulation A34 tablets
Description: In a masked, multi-centered dose ranging field study, dogs with naturally occurring osteoarthritis were treated with grapiprant at 2 mg/kg once daily (SID), 5 mg/kg once daily, 4 mg/kg twice daily (BID), or placebo twice daily to assess the control of pain and inflammation. Dogs were randomly assigned to one of the four treatment groups and treated orally with Formulation A34 tablets of 20, 60, and 100 mg, or placebo tablets (matched to the 4 mg/kg group). (See above at Example 2, Table 4). The control of pain and inflammation was assessed by the owner using the validated Canine Brief Pain Inventory (CBPI) assessment tool, which consists of a pain severity score (PSS), a Pain Interference Score (PIS), and an Owner Impression of dog's quality of life. CBPI scoring, as well as a veterinarian assessment of osteoarthritis, were conducted at Study Day 0 (baseline) and Days 7, 14, 21, and 28.
In total 476 dogs were screened in the study with 108 screen failures, resulting in […] in the per protocol population.

Feline Onychectomy = test: Feline onychectomy pain study FCL-12-002 (Example 9); format: in vivo, cat
Description: This controlled, non-GLP, laboratory study used three treatment groups: Group 1 was dosed with 20-mg grapiprant-containing Formulation […] tablets the night before (about 12 hours) and 30 minutes before surgery; Group 2 was the negative control dosed with empty gelatin capsules; and Group 3 was dosed with two 20-mg grapiprant-containing Formulation […] tablets given 30 minutes before surgery. Ten adult cats were in each group. The cats were acclimated for 7 days. Cats were divided into two sequences of 15 cats each to allow for surgeries over two days. The day of surgery was considered Day 0 for that sequence. One cat from each grapiprant-treated group was removed before surgical procedures were performed. On Day -1/0 for that sequence, all animals were administered with the appropriate test article before onychectomy. All animals received a dose of butorphanol before surgery. Following Day 2 procedures, all animals were transferred to an open feline colony. Study parameters of interest included statistical analysis of recovery, sedation, analgesia scores, and clinical pathology.

[3] = 28-day safety and toxicokinetic study in cats (Example 14); format: in vivo, cat; details: for half-life: both sexes, domestic shorthair, cat, serum, oral, 15 mg/kg
Description: The objective of this study was to evaluate the feline safety and toxicokinetic profiles of grapiprant. Twenty-four domestic shorthair cats were randomly assigned to receive placebo or 3, 9, or 15 mg/kg grapiprant in a capsule formulation (3 males and 3 females per group) once daily for 28 days. All cats received their assigned medications as per protocol. Food consumption and behavior were observed daily, bodyweight measured weekly, and clinical pathology analyses on blood run on Days −7, 14, and 25, and urinalysis run on Days −7, and 25. Serial blood samples for toxicokinetic analyses were obtained following the Day 0 and Day 27 doses. Full necropsies and histopathological evaluations were performed following humane euthanasia on Day 28.

[4] = tested on: mechanical hyperalgesia induced by carrageenan model; details: cited from earlier work
[5] = Day 0, Group 1: single oral 20 mg API in capsule
[6] = Day 0, Group 2: single oral 2 mg/kg, 0.3 mg/mL methylcellulose suspension
[7] = Day 0, Group 1: 20 mg API in capsule
[8] = Day 0, Group 2: methylcellulose suspension
[9] = cats, 20-mg Formulation A34 tablets before onychectomy, vs placebo control

## CCc1nc2c(C)nc(C)cc2n1-c1ccc(CCNC(=O)NS(=O)(=O)c2ccc(C)cc2)cc1 [grapiprant, N-{2-[4-(2-ethyl-4,6-dimethyl-1H-imidazo[4,5-c]pyridin-1-yl)phenyl]ethyl}-N′-[(4-methylphenyl)sulfonyl]urea]
[1]; [5]
  AUC(0-t): 1580 ng·h/mL
  AUC(0-inf): 1640 ng·h/mL
  Cmax: 804 ng/mL
  Tmax: 1.08 h
  half-life: 5.5 h
[1]; [6]
  AUC(0-t): 1650 ng·h/mL
  AUC(0-inf): 1870 ng·h/mL
  Cmax: 751 ng/mL
  Tmax: 0.786 h
  half-life: 4.1 h
[1]; [7]
  AUC0-∞/Dose: 724 (hr*ng/mL)/(mg/kg)
  Cmax/Dose: 359 (ng/mL)/(mg/kg)
[1]; [8]
  AUC0-∞/Dose: 937 (hr*ng/mL)/(mg/kg)
  Cmax/Dose: 376 (ng/mL)/(mg/kg)
[2]; 2 mg/kg SID and 5 mg/kg SID doses
  control of pain and inflammation of osteoarthritis (PSS and PIS of the CBPI): equally effective in controlling the pain and inflammation of osteoarthritis in dogs
[2]; 2 mg/kg SID
  median decrease from baseline PSS score: 48
  median decrease from baseline PIS score: 53.25
[2]; 4 mg/kg BID
  median decrease from baseline PSS score: 44.44
  median decrease from baseline PIS score: 52.27
[2]; 5 mg/kg SID
  median decrease from baseline PSS score: 48.53
  median decrease from baseline PIS score: 55.27
[2]; 2 mg/kg SID, Day 7, median
  Pain Interference Score (PIS), % change from Day 0: −27.97%
  Pain Severity Score (PSS), % change from Day 0: −24.26%
[2]; 2 mg/kg SID, Day 14, median
  Pain Interference Score (PIS), % change from Day 0: −33.33%
  Pain Severity Score (PSS), % change from Day 0: −32.00%
[2]; 2 mg/kg SID, Day 21, median
  Pain Interference Score (PIS), % change from Day 0: −47.83%
  Pain Severity Score (PSS), % change from Day 0: −35.00%
[2]; 2 mg/kg SID, Day 28, median
  Pain Interference Score (PIS), % change from Day 0: −53.25%
  Pain Severity Score (PSS), % change from Day 0: −48.00%
[2]; 4 mg/kg BID, Day 7, median
  Pain Interference Score (PIS), % change from Day 0: −28.57%
  Pain Severity Score (PSS), % change from Day 0: −17.39%
[2]; 4 mg/kg BID, Day 14, median
  Pain Interference Score (PIS), % change from Day 0: −35.24%
  Pain Severity Score (PSS), % change from Day 0: −28.29%
[2]; 4 mg/kg BID, Day 21, median
  Pain Interference Score (PIS), % change from Day 0: −42.11%
  Pain Severity Score (PSS), % change from Day 0: −38.89%
[2]; 4 mg/kg BID, Day 28, median
  Pain Interference Score (PIS), % change from Day 0: −52.27%
  Pain Severity Score (PSS), % change from Day 0: −44.44%
[2]; 5 mg/kg SID, Day 7, median
  Pain Interference Score (PIS), % change from Day 0: −26.92%
  Pain Severity Score (PSS), % change from Day 0: −22.22%
[2]; 5 mg/kg SID, Day 14, median
  Pain Interference Score (PIS), % change from Day 0: −40.00%
  Pain Severity Score (PSS), % change from Day 0: −30.00%
[2]; 5 mg/kg SID, Day 21, median
  Pain Interference Score (PIS), % change from Day 0: −53.85%
  Pain Severity Score (PSS), % change from Day 0: −44.44%
[2]; 5 mg/kg SID, Day 28, median
  Pain Interference Score (PIS), % change from Day 0: −55.27%
  Pain Severity Score (PSS), % change from Day 0: −48.53%
[2]; extrapolated from human PK/PD, protein binding and receptor affinity, confirmed in the field study
  preliminary estimated mean effective canine dose: 2 mg/kg SID
Feline Onychectomy; Group 1 (about 12 hours and 30 minutes before surgery) vs Group 3 (two tablets 30 minutes before surgery)
  comparison of dosing regimens: dosing the cats with grapiprant the night before surgery was more effective
Feline Onychectomy; both groups of grapiprant treated animals
  pain interventions: fewer pain interventions than placebo control
Feline Onychectomy; [9]
  analgesia scores: decreased analgesia scores (reduced pain)
  sedation scores: without an apparent effect on sedation scores
[3]; capsule 3, 9, or 15 mg/kg once daily, Day 27, read-out: Mean half-lives
  half-life: 3 to 14 h
[3]; capsule 3, 9, or 15 mg/kg once daily, Day 27, read-out: half-life, median value
  half-life: 5 to 6 h
[3]; capsule 3, 9, or 15 mg/kg once daily for 28 days
  tolerability and adverse effects: well tolerated, and no adverse effects were noted at daily doses up to 15 mg/kg for 28 days
[3]; capsule 3, 9, or 15 mg/kg once daily, Day 27
  time after administration at which maximum serum concentrations were reached: 1 to 4 h
[4]
  effect on mechanical hyperalgesia: significantly reduces mechanical hyperalgesia
